Laboratory results from patent publication US20140243332A1, “METHODS OF TREATING CANCERS CHARACTERIZED BY ABERRENT ROS1 ACTIVITY” (Oregon Health & Science University, priority 2013, published 2014).

Legend:
[1] = test system: SLC-ROS and ERK1/2 phosphorylation; assay: Immunoblot of HCC78 lysates; assay type: cell-based, human; conditions: HCC78 cells, immunoblot FIG. 1E
Protocol: FIG. 1E is an image of an immunoblot of lysates of HCC78 cells probing for phosphorylated and total SLC-ROS1 and ERK1/2, and phosphorylated protein S6 after treatment with the indicated concentration of the indicated inhibitor. The images are representative of two independent experiments.
Ba/F3 FIG-ROS, Ba/F3 SLC-ROS, HCC78 and mCC cell lines were treated with the indicated concentration of inhibitors for 1-2 hours. […] The protein content of the cell lysates was determined and lysates were either used for immunoprecipitation where indicated or extracted with SDS Sample buffer for 15 minutes at 80° C. Proteins were transferred to Immobilon-FL membranes and immunoblotted with antibodies specific for phospho-ROS1 (Cell Signaling Technology (CST) #3078), total ROS1 (CST #3266), phopsho-Shp2 (CST #3751), total Shpt (CST #3752), phospho-Stat3 (CST #9145), total Stat3 (CST #4904), phospho-Erk1/2 (CST #9101), total Erk2 (Santa Cruz #SC-1647), phospho-S6 (CST #4858), total S6 (CST #2216), phospho-Src (CST #2105), total Src (CST #2110), α-tubulin (Sigma T6199), or β-actin (Sigma A1978) as indicated. Images of the blots were generated by the LI-COR Odyssey® imaging system, following the manufacturer's protocol for immunoblot detection with use of IR-dye conjugated secondary antibodies.

Ba/F3 FIG-ROS cells = biological target: T1, Ba/F3 FIG-ROS cells (Homo sapiens, UniProt P08922); assay: Apoptosis induction (Annexin V / 7-AAD), Ba/F3 FIG-ROS; assay type: cell-based; conditions: 15 nM, 48 hours
T1 construct: fused on or other part: GFP is co-expressed from an IRES in pMIG and is not fused; Q9HD26 (Golgi-associated PDZ and coiled-coil motif-containing protein)
Protocol: FIG. 5A is a set of three bar graphs depicting the induction of apoptosis in Ba/F3 FIG-ROS, Ba/F3 SLC-ROS and Ba/F3 ALK F1174L cells after 48 hours of treatment with the indicated doses of the indicated compounds. The number of cells that were Annexin V and 7-AAD positive after inhibitor treatment was normalized to number of cells staining positive with these markers with vehicle treatment (basal). A minimum of 2000 cells were counted per condition. Rate of apoptosis is shown as fold over basal. Basal apoptosis in Ba/F3 FIG-ROS, Ba/F3 SLC-ROS and Ba/F3 ALK F1174 cells was 3.6%, 2.8% and 1.2% respectively.

SLC-ROS = SLC-ROS (Homo sapiens, UniProt P08922); assay: Immunoblot of NIH3T3 SLC-ROS lysates; assay type: cell-based; design: SLC34A2 N-terminal portion, fusion partner; expressed in transfected cells; host or cells: Ba/F3 (A15) and NIH3T3 (A25), retroviral pMIG; the other entry of the earlier key: SLC34A2 (O95436, Sodium-dependent phosphate transport protein 2B); conditions: NIH3T3 SLC-ROS cells, 1 hour, at lower doses than crizotinib
Protocol: The parental Ba/F3 cell line was cultured in RPMI 1640 medium with 10% FBS, L-glutamine, penicillin/streptomycin and 15% WEHI-conditioned media. Ba/F3 cell lines were maintained at densities of 0.5×10^6 to 1.5×10^6 per ml of media. FIG-ROS and SLC-ROS Ba/F3 lines were created by infecting the parental Ba/F3 with retrovirus expressing either human FIG-ROS-S (indicated FIG-ROS herein) or SLC-ROS-S (indicated SLC-ROS herein). Stable transfectant lines were sorted for GFP expression on a FACS Aria® flow cytometer. Cells were counted daily using Guava ViaCount® reagent and Guava Personal Cell Analysis® flow cytometer. […] Early passage NIH3T3 cells were infected with retrovirus expressing either FIG-ROS or SLC-ROS and sorted for GFP expression as described above for Ba/F3 cells. HCC78 cells were cultured in RPMI 1640 medium with 10% FBS, L-glutamine, and penicillin/streptomycin. This media is referred to as RPMI-10% FBS herein.

[2] = test system: FIG-ROS cholangiocarcinoma tumor cells; assay: Anchorage-independent colony formation in soft agar, FIG-ROS cholangiocarcinoma cells; assay type: cell-based, murine; conditions: dose dependent
Text: […]. The values indicate the mean and the error bars indicate the standard error of the mean of 3 independent wells.
. The inhibition was dose dependent (FIG. 2B). […].

[3] = biological target: Ba/F3 CD74-ROS G2032R mutant cells (Homo sapiens, UniProt P08922, G2032R, cells depend on it); assay: Cell growth assay, Ba/F3 CD74-ROS G2032R; assay type: cell-based; conditions: 72 hour exposure, read-out: IC50 (the source's name)
Text: Data are shown as normalized to vehicle-treated cells. The values are means±SEM from three independent experiments performed in triplicate.

[4] = test system: shPten murine cholangiocarcinoma tumor cells; assay: cells; conditions: Mus musculus, read-out: IC50 cell growth
Protocol: (§1) Hepatoblasts of the genotype AlbCre^+/−; Isl Kras^G12D+/−; p53^R172H/loxp were isolated from ED14.5 mouse embryos and retrovirally transduced with either the FIG-ROS fusion, turbo RFP or a short hairpin RNA against Pten (shPten.1522). At 48 hours following transduction, 1×10^6 cells were resuspended in 25 μl Matrigel and injected sub-capsular into the livers of immune-deficient mice. Upon tumor formation, tumors were explanted and subjected to collagenase digestion. Digests were plated onto gelatin-coated plates. Tumor cells were enriched by either differential trypsinization or cell sorting. […] These four cell lines were further cultured and maintained in DMEM-High glucose medium supplemented with 10% FCS, L-glutamine and penicillin/streptomycin.
(§2) Cell lines were distributed in 96-well plates and incubated with the indicated concentrations of inhibitor for 72 hours. […] Ba/F3 cell lines were plated at 4×10^3 cells/well. HCC78 and mCC cell lines were plated at 1.5×10^3 cells/well. All cell types were seeded in a final volume of 80 microliters. A 20 microliter volume of five-fold concentrated inhibitor media was added. Cell proliferation was measured using a […] viability assay (CellTiter96 Aqueous One® Solution; Promega). A BioTek Synergy 2® plate reader was used to read the absorbance at 490 nm at 30 minutes and 1 hour after addition of MTS. To facilitate comparison between experiments, the raw MTS absorbance of vehicle (0.1% DMSO) treated cells was set to 1 and absorbance from inhibitor treated wells was normalized to the vehicle treated value. […] Data were normalized using Microsoft Excel® and further non-linear regression curve fit analysis of the normalized data for determination of IC50 was performed using Graphpad Prism® software.
(§3) To directly assess inhibition of FIG-ROS phosphorylation, immunoblot analyses of lysates from vehicle or inhibitor-treated cells were performed.

[5] = test system: FIG-ROS murine cholangiocarcinoma tumor cells; assay: cells; conditions: Mus musculus, read-out: IC50 cell growth
Protocol: as §1, §2, §3

T1 sequence (P08922 whole entry, change not shown, the tested form may be a part): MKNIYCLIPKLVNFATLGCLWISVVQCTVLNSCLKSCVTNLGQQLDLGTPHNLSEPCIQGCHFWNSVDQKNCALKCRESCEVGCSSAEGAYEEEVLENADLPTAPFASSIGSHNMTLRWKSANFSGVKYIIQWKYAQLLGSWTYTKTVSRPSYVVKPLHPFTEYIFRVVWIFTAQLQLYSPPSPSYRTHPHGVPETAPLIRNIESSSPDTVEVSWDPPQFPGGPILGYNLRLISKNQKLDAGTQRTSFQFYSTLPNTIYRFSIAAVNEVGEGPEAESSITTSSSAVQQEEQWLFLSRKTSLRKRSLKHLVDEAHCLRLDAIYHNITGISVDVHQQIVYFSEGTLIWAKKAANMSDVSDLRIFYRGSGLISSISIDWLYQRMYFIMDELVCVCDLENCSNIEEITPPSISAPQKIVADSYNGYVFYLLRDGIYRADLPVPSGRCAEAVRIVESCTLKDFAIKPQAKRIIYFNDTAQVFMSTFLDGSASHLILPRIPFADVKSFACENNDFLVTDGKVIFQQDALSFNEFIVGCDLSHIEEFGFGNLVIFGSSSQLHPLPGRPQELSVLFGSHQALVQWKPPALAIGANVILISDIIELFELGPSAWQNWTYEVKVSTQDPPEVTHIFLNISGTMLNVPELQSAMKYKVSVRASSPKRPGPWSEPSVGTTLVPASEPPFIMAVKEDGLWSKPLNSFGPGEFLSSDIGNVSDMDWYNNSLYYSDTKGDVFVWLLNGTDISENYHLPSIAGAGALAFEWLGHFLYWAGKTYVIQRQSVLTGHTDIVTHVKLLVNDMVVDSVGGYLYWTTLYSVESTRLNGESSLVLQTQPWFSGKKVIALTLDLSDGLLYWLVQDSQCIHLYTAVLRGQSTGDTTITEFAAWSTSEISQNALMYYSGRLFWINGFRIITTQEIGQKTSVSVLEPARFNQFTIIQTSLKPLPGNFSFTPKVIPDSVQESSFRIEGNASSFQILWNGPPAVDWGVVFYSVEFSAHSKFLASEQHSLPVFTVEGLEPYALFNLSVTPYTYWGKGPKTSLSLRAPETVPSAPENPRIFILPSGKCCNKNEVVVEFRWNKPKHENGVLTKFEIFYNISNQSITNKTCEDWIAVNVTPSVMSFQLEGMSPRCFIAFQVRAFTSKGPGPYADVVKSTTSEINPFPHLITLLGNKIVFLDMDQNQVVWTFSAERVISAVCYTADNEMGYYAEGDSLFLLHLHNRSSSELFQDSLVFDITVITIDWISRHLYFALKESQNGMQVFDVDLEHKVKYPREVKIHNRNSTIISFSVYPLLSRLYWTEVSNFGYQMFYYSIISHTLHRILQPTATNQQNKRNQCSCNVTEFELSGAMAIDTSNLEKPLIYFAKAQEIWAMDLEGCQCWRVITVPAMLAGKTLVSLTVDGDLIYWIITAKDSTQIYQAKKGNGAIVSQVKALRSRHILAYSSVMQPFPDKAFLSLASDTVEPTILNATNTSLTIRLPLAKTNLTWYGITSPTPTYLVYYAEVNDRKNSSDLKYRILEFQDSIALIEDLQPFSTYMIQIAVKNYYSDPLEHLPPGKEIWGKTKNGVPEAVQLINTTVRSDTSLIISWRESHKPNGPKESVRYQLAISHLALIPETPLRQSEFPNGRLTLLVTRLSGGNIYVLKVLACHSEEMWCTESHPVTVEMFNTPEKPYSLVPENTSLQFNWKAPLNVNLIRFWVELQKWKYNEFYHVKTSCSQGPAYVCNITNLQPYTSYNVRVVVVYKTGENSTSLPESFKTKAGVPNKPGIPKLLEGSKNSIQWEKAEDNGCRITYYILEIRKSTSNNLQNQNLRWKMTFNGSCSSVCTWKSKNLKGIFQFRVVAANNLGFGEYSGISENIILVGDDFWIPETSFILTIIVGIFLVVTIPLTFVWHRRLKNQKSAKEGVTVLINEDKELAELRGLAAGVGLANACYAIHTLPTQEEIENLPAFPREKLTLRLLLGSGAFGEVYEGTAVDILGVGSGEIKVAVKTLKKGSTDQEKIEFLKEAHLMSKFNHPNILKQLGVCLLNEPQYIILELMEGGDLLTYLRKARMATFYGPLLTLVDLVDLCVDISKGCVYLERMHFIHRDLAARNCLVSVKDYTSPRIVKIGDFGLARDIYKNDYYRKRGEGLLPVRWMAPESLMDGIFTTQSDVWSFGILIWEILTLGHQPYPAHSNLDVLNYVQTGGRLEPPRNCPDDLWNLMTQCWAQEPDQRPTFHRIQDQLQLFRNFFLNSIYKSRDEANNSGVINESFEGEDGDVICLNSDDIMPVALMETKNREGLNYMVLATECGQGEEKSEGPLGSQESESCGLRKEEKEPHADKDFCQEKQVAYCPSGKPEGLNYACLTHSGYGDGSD
Sequence of Ba/F3 CD74-ROS G2032R mutant cells (P08922 whole entry G2032R): as the sequence (P08922 whole entry, change not shown, the tested form may be a part) above, with G2032R counted along it
Sequence of SLC-ROS (P08922 with tags, fused parts or gaps): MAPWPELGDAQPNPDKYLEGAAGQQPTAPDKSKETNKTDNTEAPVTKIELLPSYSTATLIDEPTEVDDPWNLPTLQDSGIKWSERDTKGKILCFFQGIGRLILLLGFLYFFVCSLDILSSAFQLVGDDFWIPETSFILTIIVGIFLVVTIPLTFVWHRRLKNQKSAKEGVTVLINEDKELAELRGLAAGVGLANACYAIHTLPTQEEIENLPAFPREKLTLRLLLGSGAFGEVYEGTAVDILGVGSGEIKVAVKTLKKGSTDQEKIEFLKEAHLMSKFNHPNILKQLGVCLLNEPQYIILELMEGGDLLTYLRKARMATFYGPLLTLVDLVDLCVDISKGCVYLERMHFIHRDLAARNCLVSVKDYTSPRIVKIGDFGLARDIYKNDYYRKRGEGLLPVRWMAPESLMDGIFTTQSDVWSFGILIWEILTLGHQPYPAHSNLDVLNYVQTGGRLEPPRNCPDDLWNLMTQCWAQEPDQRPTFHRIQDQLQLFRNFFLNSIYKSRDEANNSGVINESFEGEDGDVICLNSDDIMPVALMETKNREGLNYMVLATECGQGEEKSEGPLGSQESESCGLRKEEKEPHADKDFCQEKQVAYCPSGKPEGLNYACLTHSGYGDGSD

SMILES: COc1cc2c(Oc3ccc(NC(=O)C4(C(=O)Nc5ccc(F)cc5)CC4)cc3F)ccnc2cc1OCCCN1CCOCC1 [foretinib, N1′-[3-fluoro-4-[[6-methoxy-7-(3-morpholinopropoxy)-4-quinolyl]oxy]phenyl]-N1-(4-fluorophenyl)cyclopropane-1,1-dicarboxamide]
- inhibition of SLC-ROS and ERK1/2 phosphorylation [1]: at a lower concentration than did crizotinib
- apoptosis induction (Ba/F3 FIG-ROS cells): induced apoptosis
- SLC-ROS phosphorylation (SLC-ROS): strongly suppressed
- anchorage-independent colonies in soft agar [2]: inhibited
- GI50 [3]: 0.05 µM
- IC50 [4]: > 2 µM
- IC50 [5]: 0.3 µM
